# Several values for one entry are separate records, joined by “and”; a condition that tells them apart may be missing. Equal entries are not always repeated. Marks after values point to notes of the source that are not given here.
# Assays:
# [1] = target: T1, human FRβ (CHO-FRβ cells) (Homo sapiens, UniProt P14207); test: Relative affinity assay: displacement of [3H]FA from CHO-FRβ cells; assay type: binding; details: 37°C, competitor of [3H]FA, inverse molar ratio to displace 50%
# T1 construct: host or cells: CHO-K1 cells
# T1 sequence (P14207 17-255): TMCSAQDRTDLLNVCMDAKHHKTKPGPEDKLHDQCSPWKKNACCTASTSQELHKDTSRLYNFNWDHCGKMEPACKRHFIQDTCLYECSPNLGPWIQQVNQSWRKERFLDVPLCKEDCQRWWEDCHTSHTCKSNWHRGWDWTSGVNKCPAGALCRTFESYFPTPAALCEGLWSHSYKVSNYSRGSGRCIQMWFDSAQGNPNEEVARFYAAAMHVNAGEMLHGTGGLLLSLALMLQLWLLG
# Protocol: The relative affinities of EC0746, AMT, and MTX were determined according to a previously established method except that both KB cells and CHO-FRβ cells were used as the sources of FR [33]. KB cells are a human cancer cell line known for elevated expression of FRα. CHO-FRβ cells were obtained from Manohar Ratnam, Department of Biochemistry and Cancer Biology, The University of Toledo (Toledo, OH, USA). This cell line was originally generated by stable integration and amplification of a human FRβ cDNA expression construct in CHO-K1 cells.
# [2] = test system: adjuvant-induced arthritis; test: Rat adjuvant-induced arthritis (AIA) model; assay type: in vivo; details: for Inhibition in paw edema (%): paw weight day 24; for Body weight change (%): day 24 relative to day 10
# Protocol: The rats were then inoculated intradermally (at the base of tail) with 0.5 mg heat-killed M. butyricum (BD Diagnostic Systems) in 100 μl light mineral oil (Sigma-Aldrich, St Louis, MO, USA). […] For each study, two or three rats from the same colony were not induced for arthritis and were used as healthy controls.
# Unless noted otherwise, all drug treatments started on day 10 after arthritis induction and lasted for two consecutive weeks with biweekly (BIW, Mondays and Thursdays) or once-weekly (QW, Mondays) dosing regimens.
# EC0746 was given subcutaneously (s.c.) in a dosing range of 25 to 1,000 nmol/kg (QW or BIW); MTX was given s.c. or orally at 250 nmol/kg (BIW) or 1,650 nmol/kg (QW); and etanercept (10 mg/kg) was given s.c. once every 3 days for a 12-day span. The QW MTX dosing regimen was to mimic MTX administration in humans, and this particular dose of 1,650 nmol/kg per week (that is, 0.75 mg/kg per week) was reportedly active as an intraperitoneal agent in the AIA model. To distinguish the anti-inflammatory mechanisms of EC0746 and MTX in vivo, a therapeutically irrelevant folate-containing competitor (EC0923, molecular weight 672) was used in 500-fold molar excess to block the activities of EC0746 and MTX at 250 nmol/kg (BIW).
# Formalin-fixed hind paws were examined by a board-certified veterinary radiologist who had no knowledge of the study groups. Specific criteria were used to establish a numerical grade of severity for each radiographic change: increased soft tissue volume (0 to 4), narrowing or widening of joint spaces (0 to 5), subchondral erosion (0 to 3), periosteal reaction (0 to 4), osteolysis (0 to 4), subluxation (0 to 3), and degenerative joint changes (0 to 3). Scores are limited to the tarsus, and the maximum possible score per foot was 26 [39]. The histopathological analysis was also performed in a blind fashion by an independent contract laboratory (Bolder BioPATH Inc., Boulder, CO, USA). The arthritic ankles were scored on a scale of 0 to 5 for inflammation, bone resorption, pannus formation, and cartilage damage, with a maximal histology score of 20 per foot.
# [3] = Plasma pharmacokinetics after single subcutaneous dose; assay type: in vivo, rat
# Protocol: Female Lewis rats with jugular vein catheters (Harlan Sprague Dawley) were used to assess the plasma pharmacokinetics of EC0746 and unconjugated AMT. The animals were divided into two main groups, one given a single dose of EC0746 s.c. and the second a single dose of AMT s.c., both at 500 nmol/kg. Whole blood samples (300 μl) were collected from three animals per time point at the following time points: 1 minute, 10 minutes, 30 minutes, 1 hour, 2 hours, 3 hours, 4 hours, and 8 hours after injection. The blood samples were placed into anticoagulant tubes containing 1.7 mg/ml K3EDTA and 0.35 mg/ml N-maleoyl-β-alanine (0.35 mg/ml) in a 0.15% acetic acid solution. Plasma samples were obtained by centrifugation for 3 minutes at ~2,000 × g and stored at -80°C. The amounts of EC0746 and AMT in the plasma and the two primary metabolites of EC0746 (AMT and AMT hydrazide) were determined by liquid chromatography/mass spectrometry/mass spectrometry.
# [4] = Preliminary short-term toxicity / MTD in folate-deficient healthy rats; assay type: in vivo, rat; details: folate-deficient rats
# Protocol: The short-term toxicity and MTD of EC0746 and AMT were evaluated in healthy rats following the standard BIW subcutaneous dosing regimen used for efficacy studies. Further, these animals were put on a folate-deficient diet for ~20 days before treatment to match the folate deficiency status of AIA rats used for therapy. The folate-deficient but nonarthritic animals were thus given increasing doses of EC0746 and AMT for two consecutive weeks on a BIW basis. […] Standard hematologic and blood chemistry parameters were examined as needed along with histopathology.
# [5] = preliminary study, 500 nmol/kg s.c. biweekly, low starting arthritis
# [6] = preliminary study, 500 nmol/kg s.c. biweekly, more established disease
# [7] = s.c., 25 nmol/kg biweekly from day 10
# [8] = s.c., 100 nmol/kg biweekly from day 10
# [9] = s.c., 250 nmol/kg biweekly from day 10
# [10] = s.c., 250 nmol/kg biweekly plus 500-fold excess EC0923
# [11] = s.c., 250 nmol/kg biweekly, alone
# [12] = s.c., 500 nmol/kg biweekly from day 10
# [13] = s.c., 1,000 nmol/kg once weekly
compound,measurement,setting,value
Nc1nc(N)c2nc(CNc3ccc(C(=O)N[C@@H](CCC(=O)NNC(=O)OCCSSC[C@H](NC(=O)[C@H](CCC(=O)NC[C@H](O)[C@@H](O)[C@H](O)[C@H](O)CO)NC(=O)[C@H](CCC(=O)O)NC(=O)[C@H](CCC(=O)NC[C@H](O)[C@@H](O)[C@H](O)[C@H](O)CO)NC(=O)[C@H](CCC(=O)O)NC(=O)[C@H](CCC(=O)NC[C@H](O)[C@@H](O)[C@H](O)[C@H](O)CO)NC(=O)CC[C@H](NC(=O)c4ccc(NCc5cnc6nc(N)[nH]c(=O)c6n5)cc4)C(=O)O)C(=O)O)C(=O)O)cc3)cnc2n1 [EC0746],Relative affinity value (FA = 1),[1],0.27
same,Improvement in paw edema (percentage increase in paw weight),[2]; [5],~ 10 fold
same,Improvement in splenomegaly (percentage increase in spleen weight),[2]; [5],threefold
same,Arthritis score maintained throughout study,"[2]; preliminary study, 500 nmol/kg s.c. biweekly, mean starting arthritis score ~0 on day 10, score max 16",~ 1
same,Maximum reduction in arthritic scores,"[2]; preliminary study, 500 nmol/kg s.c. biweekly, mean starting arthritis score ~2 (established disease)",~ 50%
same,Improvement in paw edema (percentage increase in paw weight),[2]; [6],~ 2.5 fold
same,Improvement in splenomegaly (percentage increase in spleen weight),[2]; [6],twofold
same,Splenomegaly (percentage increase in spleen weight relative to healthy rats),[2]; [7],73 ± 8^e %
same,Inhibition in paw edema (%),[2]; [7],0 ± 25^d %
same,Body weight change (%),"[2]; s.c., 25 nmol/kg biweekly",-17 ± 1%
same,Splenomegaly (percentage increase in spleen weight relative to healthy rats),[2]; [8],52 ± 13^e %
same,Inhibition in paw edema (%),[2]; [8],35 ± 11^d %
same,Body weight change (%),"[2]; s.c., 100 nmol/kg biweekly",-14 ± 1%
same,Animals with no lesions (histopathology of ankle),"[2]; s.c., 250 nmol/kg biweekly",three out of five
same,Decrease in summed histology scores,"[2]; s.c., 250 nmol/kg biweekly",94%
same,Reduction in dorsal to ventral paw thickness,"[2]; s.c., 250 nmol/kg biweekly",94%
same,Splenomegaly (percentage increase in spleen weight relative to healthy rats),[2]; [9],25 ± 6^e %
same,Inhibition in paw edema (%),[2]; [9],91 ± 4^d %
same,Decrease in inflammation score (histology),[2]; [10],24%
same,Decrease in summed histology scores,[2]; [10],~ 19%
same,Reduction in dorsal to ventral paw thickness,[2]; [10],22%
same,Anti-arthritic activity with co-administered EC0923,"[2]; s.c., 250 nmol/kg biweekly plus 500-fold molar excess EC0923 (125 μmol/kg), all clinical parameters",nearly completely blocked
same,Radiographic analysis of arthritic paws,"[2]; s.c., 250 nmol/kg biweekly plus EC0923 125 μmol/kg",significant joint erosions
same,"Anti-arthritic activity (arthritis score, body weight, paw and spleen weights)",[2]; [11],highly effective
same,Radiographic analysis of arthritic paws,[2]; [11],minimal radiographic changes
same,Body weight change (%),"[2]; s.c., 250 nmol/kg biweekly",-0.5 ± 3%
same,Improvement in splenomegaly,"[2]; s.c., 250 nmol/kg per dose biweekly, printed >3-fold to fourfold",> 3 fold
same,Splenomegaly (percentage increase in spleen weight relative to healthy rats),[2]; [12],37 ± 7%
same,Inhibition in paw edema (%),[2]; [12],91 ± 9%
same,Body weight change (%),"[2]; s.c., 500 nmol/kg biweekly",0.4 ± 4%
same,Loss of original body weight due to arthritis progression,[2]; [13],~ 7%
same,Splenomegaly (percentage increase in spleen weight relative to healthy rats),[2]; [13],39 ± 5%
same,Inhibition in paw edema (%),"[2]; s.c., 1,000 nmol/kg once weekly (days 10 and 17)",72 ± 12%
same,Body weight change (%),[2]; [13],-7 ± 3%
same,"Active drug exposure/release (AMT plus AMT hydrazide) detected in plasma, based on AUC","[3]; EC0746 500 nmol/kg s.c., 8-hour collection period",~ 18%
same,Area under the curve,"[3]; after single s.c. dose of EC0746 500 nmol/kg, 8-hour collection, analyte = label",32.5 nmol·min/mL
same,Elimination half-life,"[3]; after single s.c. dose of EC0746 500 nmol/kg, analyte = label",~ 35 minutes
same,Gastrointestinal-associated side effects at respective MTD doses,[4]; compared with AMT,less of the gastrointestinal-associated side effects than AMT
same,Difference in toxicity versus AMT (less toxic),"[4]; s.c., ratio of MTDs",~ 40 fold and 40 fold

# Reference: publication PMC3132048, “Treatment of experimental adjuvant arthritis with a novel folate receptor-targeted folic acid-aminopterin conjugate” (Arthritis Research & Therapy, 2011)
